{"source": "patent EP0314038A1", "about": "“Pyrrolidines” (Byk Gulden Lomberg Chemische Fabrik GmbH, priority 1987, dated 1989)", "system": "spontan hypertonen Ratte", "assay": "antihypertensive effect (systolic blood pressure, tail cuff) in spontaneously hypertensive rats after oral administration", "assay_type": "in vivo", "conditions": "genetically hypertensive rats (SHR/N/Ibm/Bm), N=6; for BP (% Änderung vs. Kontrolle), Mittelwert für Meßzeitpunkte: Stunden nach Gabe (Tage) 2h (1.+4.Tag): 2h after dosing, mean of days 1+4; for BP (% Änderung vs. Kontrolle), Mittelwert für Meßzeitpunkte: Stunden nach Gabe (Tage) 6h (1.-4.Tag): 6h after dosing, mean of days 1-4", "description": "Die antihypertensive Wirksamkeit der erfindungsgemäßen Verbindungen kann am Modell der spontan hypertonen Ratte nachgewiesen werden.\nZur Bestimmung der antihypertensiven Wirkung werden die unten aufgeführten Verbindungen in den angegebenen Dosen an vier aufeinander folgenden Tagen an je 6 männlichen Ratten (Stamm SHR/N/Ibm/Bm, 250-350 g) mit genetisch bedingtem Hochdruck (systolischer Blutdruck > 180 mmHg) täglich einmal mittels Schlundsonde verabfolgt. Die Messung des Blutdrucks erfolgt jeweils 6 und gegebenenfalls 2 oder 24 Stunden nach Substanzgabe.\nDie Blutdruckmessung wird in einer Wärmekammer bei 36°C vorgenommen, um eine bessere Durchblutung der Schwanzarterie zu erreichen. Hierzu werden die Tiere in perforierte Lochblechkäfige verbracht und 20 - 40 Min. nach Beginn der Aufwärmung gemessen. Zur Messung des systolischen arteriellen Drucks wird eine ringförmige Manschette mit aufblasbarer Gummimembran zur Unterbindung der Durchblutung und ein ringförmiger Piezokristallaufnehmer zur Erfassung der Pulswellen auf den Schwanz aufgeschoben. Nach erfolgter Unterbindung des Blutstroms in der Schwanzarterie wird der Manschettendruck kontinuierlich reduziert. Die Wiederkehr der Pulswellen bei Druckablassen wird automatisch als systolischer Blutdruck erkannt und ausgedruckt (Bühler, R. et al.,: Microprocessor-based automation of blood pressure measurement in the conscious rat. Proceedings of the 4th international symposium on rats with spontaneous hypertension and related studies, Rascher, R. et al. (Eds.), Schattauer Verlag, Stuttgart, New York, 1982, S. 410-413). Pulssignale und Druckverlauf werden zur Auswertung graphisch aufgezeichnet.\nZur Gewöhnung an den Meßvorgang werden die Tiere vor Substanzprüfung 14 Tage trainiert. In der zweiten Trainingswoche werden Blutdruck-Vorwerte erhoben. Tiergruppen, die Substanz erhalten, werden gegen eine Kontrollgruppe geprüft.\nIn der anscließenden Tabelle werden die untersuchten Verbindungen durch laufende Nummern gekennzeichnet, die mit den jeweiligen Beispielnummern übereinstimmen.\nTabelle I gibt für die Vertreter der erfindungsgemäßen Verbindungen die prozentuale Senkung des Blutdrucks (BP) nach oraler Verabreichung bei der Ratte wieder. Tabelle I", "key": {"[1]": {"conditions": "25 µmol/kg p.o. once daily on four consecutive days"}, "[2]": {"conditions": "10 µmol/kg p.o. once daily on four consecutive days"}}, "note": "Structures can show the parent of a compound that is named as a salt."}
{"smiles": "CCOC(=O)C1=C(C)NC(C)=C(C(=O)OCCCN2CCCC2Cc2ccc(Cl)cc2)C1c1cccc([N+](=O)[O-])c1", "note": "(racemic) [Beispiel 1, 1,4-Dihydro-2,6-dimethyl-4-(±)-(3-nitrophenyl)-pyridin-3,5-dicarbonsäure-3-ethyl-5-{3-[2-(±)-(4-chlorbenzyl)-pyrrolidinyl-1]-propyl}-ester-hydrochlorid]", "values": [{"measurement": "BP (% Änderung vs. Kontrolle), Mittelwert für Meßzeitpunkte: Stunden nach Gabe (Tage) 2h (1.+4.Tag)", "setting": "[1]", "value": "-55,5%"}, {"measurement": "BP (% Änderung vs. Kontrolle), Mittelwert für Meßzeitpunkte: Stunden nach Gabe (Tage) 6h (1.-4.Tag)", "setting": "[1]", "value": "-43,5%"}]}
{"smiles": "COC(=O)C1=C(C)NC(C)=C(C(=O)OCCCN2CCCC2Cc2ccc(Cl)cc2)C1c1cccc([N+](=O)[O-])c1", "note": "(racemic) [Beispiel 2, 1,4-Dihydro-2,6-dimethyl-4-(±)-(3-nitrophenyl)-pyridin-3,5-dicarbonsäure-3-methyl-5-{3-[2-(-)-(4-chlorbenzyl)-pyrrolidinyl-1]-propyl}-ester-hydrochlorid]", "values": [{"measurement": "BP (% Änderung vs. Kontrolle), Mittelwert für Meßzeitpunkte: Stunden nach Gabe (Tage) 2h (1.+4.Tag)", "setting": "[1]", "value": -47, "unit": "%"}, {"measurement": "BP (% Änderung vs. Kontrolle), Mittelwert für Meßzeitpunkte: Stunden nach Gabe (Tage) 6h (1.-4.Tag)", "setting": "[1]", "value": -34, "unit": "%"}, {"measurement": "BP (% Änderung vs. Kontrolle), Mittelwert für Meßzeitpunkte: Stunden nach Gabe (Tage) 24h (1.+3.Tag)", "setting": "25 µmol/kg p.o. once daily on four consecutive days, 24h after dosing, mean of days 1+3", "value": "-13,5%"}]}
{"smiles": "COC(=O)C1=C(C)NC(C)=C(C(=O)OCCCN2CCCC2Cc2ccc(Cl)cc2)C1c1cccc(Cl)c1Cl", "note": "(racemic) [Beispiel 8, 1,4-Dihydro-2,6-dimethyl-4-(±)-(2,3-dichlorphenyl)-pyridin-3,5-dicarbonsäure-3-methyl-5-{3-[2-(-)-(4-chlorbenzyl)-pyrrolidinyl-1]-propyl}-ester-hydrochlorid]", "values": [{"measurement": "BP (% Änderung vs. Kontrolle), Mittelwert für Meßzeitpunkte: Stunden nach Gabe (Tage) 2h (1.+4.Tag)", "setting": "[2]", "value": -39, "unit": "%"}, {"measurement": "BP (% Änderung vs. Kontrolle), Mittelwert für Meßzeitpunkte: Stunden nach Gabe (Tage) 6h (1.-4.Tag)", "setting": "[2]", "value": "-25,5%"}]}
{"smiles": "COC(=O)C1=C(C)NC(C)=C(C(=O)OCCCN2CCCC2Cc2ccc([N+](=O)[O-])cc2)C1c1cccc([N+](=O)[O-])c1", "note": "(racemic) [Beispiel 11, 1,4-Dihydro-2,6-dimethyl-4-(+)-(3-nitrophenyl)-pyridin-3,5-dicarbonsäure-3-methyl-5-{3-[2-(±)-(4-nitrobenzyl)-pyrrolidinyl-1]-propyl}-ester-hydrochlorid]", "values": [{"measurement": "BP (% Änderung vs. Kontrolle), Mittelwert für Meßzeitpunkte: Stunden nach Gabe (Tage) 2h (1.+4.Tag)", "setting": "[1]", "value": "-36,5%"}, {"measurement": "BP (% Änderung vs. Kontrolle), Mittelwert für Meßzeitpunkte: Stunden nach Gabe (Tage) 6h (1.-4.Tag)", "setting": "[1]", "value": "-25,5%"}]}
{"smiles": "COC(=O)C1=C(C)NC(C)=C(C(=O)OCCCN2CCCC2Cc2ccc(Cl)cc2)C1c1cccc([N+](=O)[O-])c1", "note": "(single isomer, unassigned) [Beispiel 4, 1,4-Dihydro-2,6-dimethyl-4-(+)-(3-nitrophenyl)-pyridin-3,5-dicarbonsäure-3-methyl-5-{3-[2-(-)-(4-chlorbenzyl)-pyrrolidinyl-1]-propyl}-ester-hydrochlorid]", "values": [{"measurement": "BP (% Änderung vs. Kontrolle), Mittelwert für Meßzeitpunkte: Stunden nach Gabe (Tage) 2h (1.+4.Tag)", "setting": "[2]", "value": -48, "unit": "%"}, {"measurement": "BP (% Änderung vs. Kontrolle), Mittelwert für Meßzeitpunkte: Stunden nach Gabe (Tage) 6h (1.-4.Tag)", "setting": "[2]", "value": -33, "unit": "%"}]}
